Laboratory results from PMC4798226, “Streptococcus pneumoniae Cell-Wall-Localized Phosphoenolpyruvate Protein Phosphotransferase Can Function as an Adhesin: Identification of Its Host Target Molecules and Evaluation of Its Potential as a Vaccine” (PLoS ONE, 2016).
Ends that are not written are not given here.

What was measured:
[1] = test system: S. pneumoniae strain WU2 adhesion to A549 cells; assay: Inhibition of adhesion of S. pneumoniae strain WU2 to A549 cells; type: cell-based, Streptococcus pneumoniae; settings: CFU counting
Method: (§1) A549 and D562 cells were cultured on fibronectin-coated 96-well plates (Fig 2 and S2 Fig) or on Ibidi 8 well chambers (Ibidi GmbH, Planegg/Martinsried, Germany; Figs 3, 4 and 5) or on 96-well plates without fibronectin coating (Figs 7 and 8 and S3 Fig), as previously described. Briefly, the cells were seeded at 5 × 10^4 cells/well in DMEM supplemented with 10% fetal calf serum (FCS) (without antibiotics). Twenty four hours later, the cells (~10^5 cells/well) were blocked with 0.5% gelatin for 1 h. rPtsA (0–500 nM) was then added to the cultured cells for 1 h of incubation. Excess protein was removed, and S. pneumoniae bacteria at a MOI of ~10:1 were added for additional 1 h of incubation. The inoculum size was verified in each experiment. […] Following the incubation, excess bacteria were removed, and cells were detached with trypsin and plated onto blood agar plates for counting. All the inhibitors were used at concentrations below their toxic concentrations either to the bacteria or to the cells. Keyhole limpet hemocyanin (KLH) protein was used as a negative control. Experiments were conducted in triplicates and repeated on 3 different occasions.
(§2) Inhibition of adhesion to A549 cells by anti-rPtsA antiserum, phages or peptides was performed as previously described. Briefly, bacteria were incubated for 1 h with rabbit anti-rPtsA antiserum, the phages, or the selected peptides. The bacteria were then added to the cultured human cells for an additional hour. Following this incubation, excess bacteria were removed, and the procedure was continued as described above. All the inhibitors were used at concentrations below their toxic concentrations either to the bacteria or to the cells. Negative controls included pre-immune serum, phage carrying no insert or a non-inhibitory insert, and a scrambled peptide. Each experiment was performed in triplicates and repeated on 3 different occasions and a representative experiment is presented.

rPtsA = rPtsA (Streptococcus pneumoniae serotype 4, UniProt A0A0H2UQ90); assay: biochemical; type: binding
Method: In all cases, 16 serial dilutions of each putative receptor-derived peptide (~90 nM–3.175 mM) were mixed with a constant concentration of 335 nM labeled rPtsA protein. The normalized change in the fluorescence of the labeled rPtsA protein was plotted against the peptide concentration, and a fit was computed by the NTP program. The experiments were performed in triplicate.
rPtsA labeled with fluorescent NT-495 dye at a constant concentration of 335 nM was mixed with sixteen serial dilutions (~90 nM–3.175 mM) of peptides derived from PCDH19, MMRN1, Eps1, Int β and BMPER. Contactin 4, was used as a negative control. MST analysis was performed using Monolith NT.115 (NanoTemper Technologies GmbH, München, Germany). The normalized change in the fluorescence of bound and unbound labeled rPtsA (ΔF) is indicative of the peptide binding. Plotting ΔF vs. peptide concentration facilitated the generation the dissociation curves, computed by the NTP program. In this way the Kd, reflecting the affinity of each of the peptides for rPtsA, was obtained. […] Each experiment was performed in triplicate.

[2] = test system: S. pneumoniae strain 3.8DW adhesion to A549 cells; assay: Inhibition of adhesion of S. pneumoniae strain 3.8DW to A549 cells; type: cell-based, Streptococcus pneumoniae; settings: bacteria treated 1 h with peptide, added to A549 cells (plates without fibronectin coating) for 1 h; CFU counting
Method: as §1, §2

[3] = test system: S. pneumoniae strain D39 adhesion to A549 cells; assay: Inhibition of adhesion of S. pneumoniae strain D39 to A549 cells; type: cell-based, Streptococcus pneumoniae; settings: bacteria treated 1 h with peptide, added to A549 cells (plates without fibronectin coating) for 1 h; CFU counting
Method: as §1
(§3) Inhibition of adhesion to A549 cells by anti-rPtsA antiserum, phages or peptides was performed as previously described. Briefly, bacteria were incubated for 1 h with rabbit anti-rPtsA antiserum, the phages, or the selected peptides. […]

[4] = test system: S. pneumoniae strain R6 adhesion to A549 cells; assay: Inhibition of adhesion of S. pneumoniae strain R6 to A549 cells; type: cell-based, Streptococcus pneumoniae; settings: bacteria treated 1 h with peptide, added to A549 cells (plates without fibronectin coating) for 1 h; CFU counting
Method: as §1, §3

[5] = test system: S. pneumoniae strain WU2 adhesion to Detroit 562 cells; assay: Inhibition of adhesion of S. pneumoniae strain WU2 to Detroit 562 cells; type: cell-based, Streptococcus pneumoniae; settings: bacteria treated 1 h with peptide, added to Detroit 562 cells for 2 h; CFU counting; 3–6 replicates
S. pneumoniae strain WU2 = assay: Nasopharyngeal and lung colonization of CBA/N^xid mice after intranasal inoculation of peptide-pretreated strain WU2; type: in vivo, Streptococcus pneumoniae
Method: BALB/c (highly resistant to S. pneumonia) or CBA/N^xid (highly susceptible to S. pneumoniae) mice strains were immunized subcutaneously (SC) with 25 μg of rPtsA emulsified with complete Freund’s adjuvant (CFA) and subsequently boosted (days 14 and 28) with incomplete Freund’s adjuvant (IFA). On day 42, the BALB/c and CBA/N^xid mice were challenged intranasally (IN), under deep anesthesia using Isoflurane (Piramal Critical Care Inc., PA, USA), with a sublethal dose of strain WU2 (5 × 10^7 and 5 ×x 10^5, respectively). Mice were humanely sacrificed 3 and 24 h later by CO2 asphyxiation, as recommended by the AVMA Guidelines for Euthanasia in Animals: 2013 Edition (https://www.avma.org/KB/Policies/Documents/euthanasia.pdf). Strain WU2 cells were pretreated with the respective peptides and then inoculated IN into adult CBA/N^xid mice. Mice were euthanized 3, 24 or 48 h later with CO2. The nasopharynx and right lobe lung were excised, homogenized and plated onto blood agar plates for bacterial colony counting. For survival experiments, after an immunization regime similar to that described above, BALB/c or CBA/N^xid mice were challenged with a lethal dose of strain WU2 either IN (10^8 CFU and 10^6 CFU, respectively) or intravenously (10^4 CFU). […] The following criteria were considered sufficient evidence of distress to warrant such intervention in order to minimize pain and suffering of the animals: severe weight loss (20% body weight); reluctance or inability to move freely; appearance of bristle fur; social disengagement; refusal or inability to eat or drink. No analgesic treatment was provided, as such treatment may alter the immune response and may independently affect the outcome of the experiments.
Strain WU2 cells were pretreated with Eps 1, BMPER and PCDH19 peptides and then inoculated IN into adult CBA/N^xid mice. Mice were euthanized 3, 24 or 48 h later. The nasopharynx and lungs were excised, homogenized and plated onto blood agar plates for counting. As a control, another group of mice was injected with bacteria treated ex vivo for 1 h with PBS alone.
Fig 9 Effects of target-derived peptides on nasopharyngeal and lung colonization and survival in mice. Strain WU2 cells were pretreated with peptide and then inoculated IN into adult CBA/N^xid mice. As a control, another group of mice was injected with bacteria treated ex vivo for 1 h with PBS alone. Mice were euthanized 3, 24 or 48 h later. The nasopharynx and lungs were excised, homogenized and plated onto blood agar plates for counting. […]

[6] = test system: S. pneumoniae adhesion to A549 cells; assay: Inhibition of adhesion of S. pneumoniae to A549 cells, strain not stated (scrambled peptide control); type: cell-based, Streptococcus pneumoniae; settings: bacteria treated 1 h with peptide, added to A549 cells for 1 h; CFU counting; strain not printed (Fig 8K)
Method: as §1
Fig 8 Inhibition of adhesion of S. pneumoniae cells to A549 cells by target-derived peptides. […]

[7] = target: HAT-tagged recombinant phosphoenolpyruvate protein phosphotransferase (rPtsA) (Streptococcus pneumoniae (serotype 3 strain WU2)); assay: MST; labeled rPtsA (NT-495 dye) constant at 335 nM; 16 serial dilutions of each peptide (~90 nM–3.175 mM); Monolith NT.115; triplicate
[8] = bacteria incubated 1 h with antiserum or phage, then added to gelatin-blocked A549 cells (fibronectin-coated plates) for 1 h
[9] = bacteria treated 1 h with peptide, added to A549 cells (96-well plates without fibronectin coating) for 1 h
[10] = WU2 pretreated with Eps 1 (14.7 μM), versus sham-treated (PBS) bacteria
[11] = WU2 pretreated with peptide (Eps 1 14.7 μM; BMPER 7 and 14 μM; PCDH19 14.7 and 27.4 μM), versus sham-treated bacteria

ADGGVPV [phage H10]
Inhibition of adhesion of strain WU2 to A549 cells [1, 8]: inhibited | Reduction in adhesion of strain WU2 to A549 cells ([1]; phage incubated with strain WU2 for 1 h, added to A549 cells, in comparison to adhesion of bacteria without inhibitors): 75%

WECKANGRPKPTY [Contactin 4-derived peptide, reference compound]
Kd (affinity of rPtsA binding to peptide) (rPtsA; MST, Monolith NT.115, 335 nM NT-495-labeled rPtsA, 16 serial dilutions of peptide ~90 nM–3.175 mM, fit by NTP program, triplicate): a fit could not be generated

DQRPAXRRMYRA [phage D10]
Inhibition of adhesion of strain WU2 to A549 cells [1, 8]: inhibited

VVVSDATRVRVA [Col VII]
Inhibition of adhesion of strain WU2 to A549 cells [1, 9]: significant inhibition | Inhibition of adhesion of strain 3.8DW to A549 cells [2]: significant inhibition

DQVARIPVIRRV [Intβ4]
Kd (rPtsA): 115 ± 20.5 µM

VLVKNDARRTRS [BMPER]
Kd (rPtsA): 21 ± 5.49 µM

TXQVSNHKNHTN [phage E6]
Inhibition of adhesion of strain WU2 to A549 cells [1, 8]: inhibited

LDSIRIIVIRRI [phage H9]
Inhibition of adhesion of strain WU2 to A549 cells [1, 8]: inhibited

SDGGVPV [Eps 1]
Inhibition of adhesion of strain WU2 to A549 cells [1, 9]: significantly inhibited | Inhibition of adhesion of strain 3.8DW to A549 cells [2]: significantly inhibited | Inhibition of adhesion of strain D39 to A549 cells [3]: significantly inhibited | Inhibition of adhesion of strain R6 to A549 cells [4]: significantly inhibited | Inhibition of adhesion of strain WU2 to Detroit 562 cells [5]: significant inhibition | Bacterial load in the lungs, 3 h post inoculation (S. pneumoniae strain WU2; [10]): significant reduction | Bacterial load in the nasopharynx, 3 h post inoculation (S. pneumoniae strain WU2; [10]): significant reduction | Bacterial load in the lungs, 48 h post inoculation (S. pneumoniae strain WU2; [11]): significant reduction | Bacterial load in the nasopharynx, 48 h post inoculation (S. pneumoniae strain WU2; [11]): significant reduction

ADDESPEMKPGX [phage D8]
Inhibition of adhesion of strain WU2 to A549 cells [1, 8]: inhibited

AVVVNDANRTRK [phage D3]
Inhibition of adhesion of strain WU2 to A549 cells [1, 8]: inhibited

TEQVSDQKNAPA [MMRN1]
Inhibition of adhesion of strain WU2 to A549 cells [1, 9]: significant inhibition | Inhibition of adhesion of strain 3.8DW to A549 cells [2]: significant inhibition

LPADWATTLMVCSSK [scrambled peptide]
Inhibition of adhesion of S. pneumoniae to A549 cells [6]: No significant inhibition

SDGGVPV [Eps 1-derived peptide]
Kd [7]: 43.9 µM

VLVKNDARRTRS [BMPER-derived peptide]
Kd [7]: 21 µM

TEQVSDQKNAPA [MMRN1-derived peptide]
Kd [7]: 391 µM

DGGVPML [PCDH19-derived peptide]
Kd [7]: 58 µM

DQVARIPVIRRV [Int β4-derived peptide]
Kd [7]: 115 µM
